{"source": "patent US4113957A", "about": "“1-Substituted pyrazoles” (Bayer Aktiengesellschaft, priority 1975, dated 1978)", "system": "venous thrombs (left jugular vein)", "assay": "Antithrombotic action: thromb formation in supercooled jugular vein of rats", "type": "in vivo", "details": "Rattus norvegicus, po, 10 mg/kg orally, reduction of thromb size vs control, after 4 hours", "experimental": "The left jugular vein of rats weighing 170 to 180 g was exposed under ether narcosis and supercooled to -12° C. for 2 minutes to stimulate thromb formation. The thromb was isolated from the vein 4 hours later, and was weighed. The test animals were given the test preparation in tragacanth mucilage immediately before supercooling the wall of the blood vessel. As a result, the protective antithrombotic activity was tested in the first 4 hours after stimulating thromb formation.", "data": [{"smiles": "Cc1cc(OC(=O)c2ccco2)n(CCOc2ccc3ccccc3c2)n1", "note": "[Example 20, 5-(Furyl-(2)-carbonyloxy)-3-methyl-1-(2-(β-naphthyloxy)-ethyl)-pyrazole]", "values": [{"measurement": "inhibition at 10 mg/kg", "result": 61, "unit": "%"}]}]}
